Patent publication US9029127B2, “Method of degrading TBP using a photosynthetic bacterial strain” (priority 2003, dated 2015)

What was measured:
Serratia odorifera sp. = assay: Effect of carbon monoxide on growth and TBP degradation of Serratia odorifera; format: cell-based; details: aerobiosis; for effect of CO on growth: Tsb medium
[1] = test system: Rp. palustris CGA009 (ATCC BAA-98); assay: Effect of the cytochrome P450 inhibitor carbon monoxide on growth and TBP degradation of Rp. palustris; details: for effect of CO on growth: photosynthetic conditions, Hutner medium
[2] = test system: proteins extracted from Rp. palustris CGA009; format: biochemical, Rhodopseudomonas palustris
Rp. palustris = assay: Growth of wild-type Rp. palustris in the presence of gentamycin; format: cell-based, Rhodopseudomonas palustris; details: gentamycin 50 μg·ml^−1
Rp. palustris ΔpRpa1 = format: cell-based, Rhodopseudomonas palustris

Compound: [C-]#[O+] [CO, carbon monoxide]
- effect of CO on TBP degradation yield (Serratia odorifera sp.; 2 mM TBP): does not significantly modify
- effect of CO on growth (Serratia odorifera sp.; 2 mM TBP present): nor does it affect the growth
- effect of CO on growth (Serratia odorifera sp.; TBP absent): does not affect the growth
- effect of CO on growth ([1]; 2 mM TBP present): greatly reduced
- effect of CO on growth ([1]; TBP absent): does not affect the growth
- effect of CO on TBP degradation ([1]; residual TBP after 21 days of culture, 2 mM TBP): considerable decrease in TBP degradation

Compound: Cc1cc2c(cc1C)N(C[C@H](O)[C@H](O)[C@H](O)COP(=O)(O)OP(=O)(O)OC[C@H]1O[C@@H](n3cnc4c(N)ncnc43)[C@H](O)[C@@H]1O)c1[nH]c(=O)[nH]c(=O)c1N2 [FADH2]
- effect of cofactor on TBP degradation [2]: does not significantly enhance

Compound: NC(=O)C1=CN([C@@H]2O[C@H](COP(=O)(O)OP(=O)(O)OC[C@H]3O[C@@H](n4cnc5c(N)ncnc54)[C@H](O)[C@@H]3O)[C@@H](O)[C@H]2O)C=CC1 [NADH]
- effect of cofactor on TBP degradation [2]: does not significantly enhance

Compound: gentamycin
- resistance of the strain to the antibiotic (Rp. palustris): naturally resistant
- growth in the presence of the antibiotic (Rp. palustris ΔpRpa1): grows in the presence of this antibiotic
